Laboratory results published in patent US9609868B2, “Alkoximino-substituted anthranilic acid diamides as pesticides” (BAYER CROPSCIENCE AKTIENGESELLSCHAFT, priority 2013, dated 2017).

Columns and labels:
Myzus persicae = Myzus persicae - spray test (MYZUPE); type: in vivo; settings: application rate 100 g/ha, Chinese cabbage leaf disks
Method: Myzus persicae—Spray Test (MYZUPE)
Solvent: 78 parts by weight of acetone • • 1.5 parts by weight of dimethylformamide
(§1) Emulsifier: 0.5 parts by weight of alkylaryl polyglycol ether
(§2) To produce a suitable active compound preparation, 1 part by weight of active compound is mixed with the stated amounts of solvent and emulsifier, and the concentrate is diluted with emulsifier-containing water to the desired concentration.
Disks of Chinese cabbage leaves (Brassica pekinensis) infested by all stages of the green peach aphid (Myzus persicae) are sprayed with an active compound preparation of the desired concentration.
After the desired period of time, the efficacy in % is determined. 100% means that all the aphids have been killed; 0% means that none of the aphids have been killed.

Spodoptera frugiperda = Spodoptera frugiperda - spray test (SPODFR); type: in vivo; settings: application rate 100 g/ha, maize leaf disks
In short: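 Maize leaf disks sprayed with compound in acetone/DMF with alkylaryl polyglycol ether emulsifier, diluted in water to test concentration, then infested with armyworm caterpillars once dry. Efficacy given as % caterpillars killed (100% all, 0% none) after the chosen period.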

Phaedon cochleariae = Phaedon cochleariae - spray test (PHAECO); type: in vivo; settings: application rate 100 g/ha, Chinese cabbage leaf disks
Method: Phaedon cochleariae—Spray Test (PHAECO)
Solvent: 78.0 parts by weight of acetone • • 1.5 parts by weight of dimethylformamide
as §1, §2
After the desired period of time, the efficacy in % is determined. 100% means that all the beetle larvae have been killed; 0% means that no beetle larvae have been killed.

[1] = log P by HPLC on reversed-phase column (C18), EEC directive 79/831 Annex V.A8; type: physicochemical; settings: HPLC reversed-phase C18, 43° C., data refer to the E isomer
Method: The log P values reported in the tables and Preparation Examples above were determined in accordance with EEC directive 79/831 Annex V.A8 by HPLC (High Performance Liquid Chromatography) using a reversed-phase column (C18). Temperature 43° C. The calibration is effected with unbranched alkan-2-ones (having 3 to 16 carbon atoms), for which the log P values are known.

Compound | efficacy (aphids killed) (Myzus persicae) [%] | efficacy (caterpillars killed) (Spodoptera frugiperda) [%] | efficacy (beetle larvae killed) (Phaedon cochleariae) [%] | log p ([1]; Table A) | log p ([1]; Table C) | log p ([1]; Table B)
CON=Cc1cc(C)c(NC(=O)c2cc(OC(F)F)nn2-c2ncccc2Cl)c(C(=O)NN(C)C(=O)OC)c1 (mixture of isomers) [A-49] | 90 | 100 | 100 | 2.60 |  | 
C#CCNC(=O)c1cc(C=NOC)cc(C)c1NC(=O)c1cc(CF)nn1-c1ncccc1Cl [C-57] | 90 | 100 | 100 |  | 2.38 | 
CON=Cc1cc(C)c(NC(=O)c2cc(Br)nn2-c2ncccc2Cl)c(C(=O)NN(C)C(=O)OC)c1 (mixture of isomers) [A-45] | 100 | 100 | 100 | 2.50 |  | 
CON=Cc1cc(C)c(NC(=O)c2cc(OC)nn2-c2ncccc2Cl)c(C(=O)NC(C)(C)C)c1 (mixture of isomers) [C-37] | 90 | 100 | 100 |  | 3.71 | 
CCOc1cc(C(=O)Nc2c(C)cc(C=NOC)cc2C(=O)NC(C)(C)C)n(-c2ncccc2Cl)n1 [C-11] | 100 | 100 | 100 |  | 3.42 | 
CON=Cc1cc(C)c(NC(=O)c2cc(CF)nn2-c2ncccc2Cl)c(C(=O)NC(C)C)c1 [C-49] | 90 | 100 | 100 |  | 2.65 | 
COCCNC(=O)c1cc(C=NOC)cc(C)c1NC(=O)c1cc(C(F)F)nn1-c1ncccc1Cl [C-59] | 90 | 100 | 100 |  | 2.53 | 
C#CCOC(=O)NNC(=O)c1cc(C=NOC)cc(C)c1NC(=O)c1cc(Br)nn1-c1ncccc1Cl [A-08] | 100 | 100 | 100 | 2.58 |  | 
CON=Cc1cc(C)c(NC(=O)c2cc(OC)nn2-c2ncccc2Cl)c(C(=O)NC2CC2)c1 [C-23] | 100 | 100 | 100 |  | 2.40 | 
C#CCNC(=O)c1cc(C=NOC)cc(C)c1NC(=O)c1cc(C(F)F)nn1-c1ncccc1Cl [C-62] | 90 | 100 | 100 |  | 2.69 | 
CON=Cc1cc(C)c(NC(=O)c2cc(C(F)(F)F)nn2-c2ncccc2Cl)c(C(=O)NC(C)CSC)c1 (stereo not shown) [C-05] | 100 | 100 | 100 |  | 3.72 | 
CON=Cc1cc(C)c(NC(=O)c2cc(OCC(F)F)nn2-c2ncccc2Cl)c(C(=O)NC2CC2)c1 [C-17] | 90 | 100 | 100 |  | 2.91 | 
CON=Cc1cc(C)c(NC(=O)c2cc(OC(C)C)nn2-c2ncccc2Cl)c(C(=O)NNC(=O)OC)c1 (mixture of isomers) [A-35] | 90 | 100 | 100 | 2.54 |  | 
CCOc1cc(C(=O)Nc2c(C)cc(C=NOC)cc2C(=O)NNC(=O)OC)n(-c2ncccc2Cl)n1 (mixture of isomers) [A-34] | 90 | 100 | 100 | 2.26 |  | 
CON=Cc1cc(C)c(NC(=O)c2cc(C(F)(F)F)nn2-c2ncccc2Cl)c(C(=O)NC2CSC2)c1 (mixture of isomers) [B-06] | 90 | 100 | 100 |  |  | 3.46
C#CCNC(=O)c1cc(C=NOC)cc(C)c1NC(=O)c1cc(OC)nn1-c1ncccc1Cl [C-48] | 100 | 100 | 100 |  | 2.40 | 
CON=Cc1cc(C)c(NC(=O)c2cc(C(F)F)nn2-c2ncccc2Cl)c(C(=O)NC(C)C2CC2)c1 (stereo not shown) [C-36] | 90 | 100 | 100 |  | 3.29 | 
CON=Cc1cc(C)c(NC(=O)c2cc(OCC(F)(F)F)nn2-c2ncccc2Cl)c(C(=O)NNC(=O)OC)c1 (mixture of isomers) [A-33] | 100 | 100 | 100 | 2.70 |  | 
COCCOC(=O)NNC(=O)c1cc(C=NOC)cc(C)c1NC(=O)c1cc(C(F)(F)F)nn1-c1ncccc1Cl [A-20] | 90 | 100 | 100 | 2.74 |  | 
CCNC(=O)c1cc(C=NOC)cc(C)c1NC(=O)c1cc(CF)nn1-c1ncccc1Cl [C-53] | 90 | 100 | 100 |  | 2.39 | 
CON=Cc1cc(C)c(NC(=O)c2cc(C(F)F)nn2-c2ncccc2Cl)c(C(=O)NC(C)(C)C)c1 [C-35] | 90 | 100 | 100 |  | 3.34 | 
CON=Cc1cc(C)c(NC(=O)c2cc(C(F)F)nn2-c2ncccc2Cl)c(C(=O)NN(C)C(=O)OC)c1 (mixture of isomers) [A-47] | 90 | 100 | 100 | 2.21 |  | 
CON=Cc1cc(C)c(NC(=O)c2cc(OC(C)C)nn2-c2ncccc2Cl)c(C(=O)NC(C)(C)C)c1 [C-09] | 100 | 100 | 100 |  | 3.74 | 
CON=Cc1cc(C)c(NC(=O)c2cc(OC)nn2-c2ncccc2Cl)c(C(=O)NC(C)(C)C)c1 [C-26] | 100 | 100 | 100 |  | 3.06 | 
CON=Cc1cc(C)c(NC(=O)c2cc(OC(C)C)nn2-c2ncccc2Cl)c(C(=O)NC(C)C2CC2)c1 (stereo not shown) [C-08] | 90 | 100 | 100 |  | 3.65 | 
CCNC(=O)c1cc(C=NOC)cc(C)c1NC(=O)c1cc(C(F)F)nn1-c1ncccc1Cl [C-63] | 100 | 100 | 100 |  | 2.71 | 
CON=Cc1cc(C)c(NC(=O)c2cc(OC(C)C)nn2-c2ncccc2Cl)c(C(=O)NC(C)C)c1 [C-07] | 90 | 100 | 100 |  | 3.29 | 
CON=Cc1cc(C)c(NC(=O)c2cc(C(F)F)nn2-c2ncccc2Cl)c(C(=O)NC2COC2)c1 (mixture of isomers) [B-11] | 100 | 100 | 100 |  |  | 2.31
